Where “and” joins values, the source holds several entries; their conditions need not be identical. Identical values can stand only once. Results filed as inconclusive are left out.
Test system: BDF1 mice, M5076 sarcoma s.c., survival/tumor T/C
Assay: NCI In Vivo Anticancer Drug Screen. Data for tumor model Sarcoma M5076 (subcutaneous) in B6D2F1 (BDF1) mice
Experimental: The antitumor activity of compounds was measured in mice bearing transplantable tumors. Survival or tumor size were measured and the results are expressed as the measurement made in the treated group (T) divided by the measurement made in the vehicle treated control group (C). The tumor model used in this assay is Sarcoma M5076 (subcutaneous) in B6D2F1 (BDF1) mice

[1] = endpoint: median survival time, dose: 50.0 mg/kg/injection, schedule: Q01DX009 (ip), vehicle: saline with Tween-80, higher = longer survival
[2] = endpoint: median survival time, dose: 100.0 mg/kg/injection, schedule: Q01DX009 (ip), vehicle: saline with Tween-80, higher = longer survival
[3] = endpoint: median survival time, dose: 200.0 mg/kg/injection, schedule: Q01DX009 (ip), vehicle: saline with Tween-80, higher = longer survival
[4] = endpoint: median tumor weight (est.), dose: 50.0 mg/kg/injection, schedule: Q01DX009 (ip), vehicle: saline with Tween-80, higher = larger tumour
[5] = endpoint: median tumor weight (est.), dose: 100.0 mg/kg/injection, schedule: Q01DX009 (ip), vehicle: saline with Tween-80, higher = larger tumour
[6] = endpoint: median tumor weight (est.), dose: 200.0 mg/kg/injection, schedule: Q01DX009 (ip), vehicle: saline with Tween-80, higher = larger tumour
[7] = endpoint: median survival time, dose: 50.0 mg/kg/injection, schedule: Q04DX003 (ip), vehicle: saline with Tween-80, higher = longer survival

OC(CBr)C(O)C(O)C(O)CBr (stereo not drawn)
T/C (endpoint: mean tumor weight, dose: 37.5 mg/kg/injection, schedule: Q02DX011 (ip), vehicle: Klucel (hydroxypropylcellulose) (HPC), higher = larger tumour): 66 % of control | T/C (endpoint: mean tumor weight, dose: 75.0 mg/kg/injection, schedule: Q02DX011 (ip), vehicle: Klucel (hydroxypropylcellulose) (HPC), higher = larger tumour): 63 % of control | T/C (endpoint: mean tumor weight, dose: 150.0 mg/kg/injection, schedule: Q02DX011 (ip), vehicle: Klucel (hydroxypropylcellulose) (HPC), higher = larger tumour): 52 % of control | T/C (endpoint: median survival time, dose: 30.0 mg/kg/injection, schedule: Q04DX009 (ip), vehicle: saline with Tween-80, higher = longer survival): 108 % of control | T/C (endpoint: median survival time, dose: 60.0 mg/kg/injection, schedule: Q02DX033 (ip), vehicle: saline with Tween-80, higher = longer survival): 112 % of control | T/C (endpoint: median survival time, dose: 60.0 mg/kg/injection, schedule: Q04DX009 (ip), vehicle: saline with Tween-80, higher = longer survival): 108 % of control | T/C (endpoint: median survival time, dose: 120.0 mg/kg/injection, schedule: Q02DX033 (ip), vehicle: saline with Tween-80, higher = longer survival): 158 % of control | T/C (endpoint: median survival time, dose: 120.0 mg/kg/injection, schedule: Q04DX009 (ip), vehicle: saline with Tween-80, higher = longer survival): 112 % of control | T/C (endpoint: median tumor weight (est.), dose: 37.5 mg/kg/injection, schedule: Q02DX011 (ip), vehicle: Klucel (hydroxypropylcellulose) (HPC), higher = larger tumour): 75 % of control | T/C (endpoint: median tumor weight (est.), dose: 75.0 mg/kg/injection, schedule: Q02DX011 (ip), vehicle: Klucel (hydroxypropylcellulose) (HPC), higher = larger tumour): 90 % of control | T/C (endpoint: median tumor weight (est.), dose: 150.0 mg/kg/injection, schedule: Q02DX011 (ip), vehicle: Klucel (hydroxypropylcellulose) (HPC), higher = larger tumour): 72 % of control

C=C1C(O)C2OC3(CCC(/C=C/C(C)C4CC5(C)SC5C5(OC(CC(C)(O)C(=O)O)CCC5O)O4)O3)CCC2OC1C(O)CC(C)C1OC2(CCCCO2)CCC1C (stereo not drawn)
T/C (endpoint: median survival time, dose: 1.25 micrograms/kg/injection, schedule: Q01DX009 (ip), vehicle: saline + alcohol, higher = longer survival): 101 % of control | T/C (endpoint: median survival time, dose: 2.5 micrograms/kg/injection, schedule: Q01DX009 (ip), vehicle: saline + alcohol, higher = longer survival): 96 % of control | T/C (endpoint: median survival time, dose: 5.0 micrograms/kg/injection, schedule: Q01DX009 (ip), vehicle: saline + alcohol, higher = longer survival): 108 % of control | T/C (endpoint: median survival time, dose: 10.0 micrograms/kg/injection, schedule: Q01DX009 (ip), vehicle: saline + alcohol, higher = longer survival): 96 % of control | T/C (endpoint: median tumor weight (est.), dose: 1.25 micrograms/kg/injection, schedule: Q01DX009 (ip), vehicle: saline + alcohol, higher = larger tumour): 107 % of control | T/C (endpoint: median tumor weight (est.), dose: 2.5 micrograms/kg/injection, schedule: Q01DX009 (ip), vehicle: saline + alcohol, higher = larger tumour): 77 % of control | T/C (endpoint: median tumor weight (est.), dose: 5.0 micrograms/kg/injection, schedule: Q01DX009 (ip), vehicle: saline + alcohol, higher = larger tumour): 92 % of control

COc1ccc(/C=C2\SC(=S)N(C3CC3)C2=O)cc1OC
T/C [1]: 95 % of control | T/C [2]: 93 % of control | T/C [3]: 100 % of control | T/C [4]: 90 % of control | T/C [5]: 88 % of control | T/C [6]: 79 % of control

COc1cc(-c2ccc(NC(=O)NC3CC3)c(OC)c2)ccc1NC(=O)NC1CC1
T/C [1]: 101 % of control | T/C [2]: 93 % of control | T/C [3]: 88 % of control | T/C [4]: 101 % of control | T/C [5]: 84 % of control

O=NN(CCCl)C(=O)NC1CCC(=O)NC1=O (stereo not drawn)
T/C (endpoint: median survival time, dose: 2.0 mg/kg/injection, schedule: Q01DX009 (ip), vehicle: saline + alcohol, higher = longer survival): 170 % of control | T/C (endpoint: median survival time, dose: 4.0 mg/kg/injection, schedule: Q01DX009 (ip), vehicle: saline + alcohol, higher = longer survival): 208 % of control | T/C (endpoint: median survival time, dose: 8.0 mg/kg/injection, schedule: Q01DX009 (ip), vehicle: saline + alcohol, higher = longer survival): 86 % of control

O=c1[nH]c(=O)n([C@H]2CCCO2)cc1F
T/C (endpoint: mean tumor weight, dose: 50.0 mg/kg/injection, schedule: Q02DX011 (ip), vehicle: alkali diluted with saline, higher = larger tumour): 150 % of control | T/C (endpoint: mean tumor weight, dose: 100.0 mg/kg/injection, schedule: Q02DX011 (ip), vehicle: alkali diluted with saline, higher = larger tumour): 93 % of control | T/C (endpoint: mean tumor weight, dose: 200.0 mg/kg/injection, schedule: Q02DX011 (ip), vehicle: alkali diluted with saline, higher = larger tumour): 74 % of control

O=C(O)c1ccc(C(=O)O)c(C(=O)O)c1.[NH-]C1CCCCC1[NH-].[Pt+2]
T/C (endpoint: median survival time, dose: 0.8 mg/kg/injection, schedule: Q01DX009 (ip), vehicle: sodium bicarbonate, higher = longer survival): 101 % of control | T/C (endpoint: median survival time, dose: 1.5 mg/kg/injection, schedule: Q01DX009 (ip), vehicle: sodium bicarbonate, higher = longer survival): 104 % of control | T/C (endpoint: median survival time, dose: 3.0 mg/kg/injection, schedule: Q01DX009 (ip), vehicle: sodium bicarbonate, higher = longer survival): 108 % of control | T/C (endpoint: median survival time, dose: 6.0 mg/kg/injection, schedule: Q01DX009 (ip), vehicle: sodium bicarbonate, higher = longer survival): 112 % of control | T/C (endpoint: median survival time, dose: 8.64 mg/kg/injection, schedule: Q04DX005 (ip), vehicle: sodium bicarbonate, higher = longer survival): 176 % of control | T/C (endpoint: median survival time, dose: 14.4 mg/kg/injection, schedule: Q04DX005 (ip), vehicle: sodium bicarbonate, higher = longer survival): 216 % of control | T/C (endpoint: median tumor weight (est.), dose: 3.11 mg/kg/injection, schedule: Q04DX005 (ip), vehicle: sodium bicarbonate, higher = larger tumour): 14 % of control | T/C (endpoint: median tumor weight (est.), dose: 5.18 mg/kg/injection, schedule: Q04DX005 (ip), vehicle: sodium bicarbonate, higher = larger tumour): 18 % of control

O=C1N=C(Oc2ccccc2)SC1=O
T/C [7]: 106 % of control

CCOC(=O)c1ccc(N2C(=O)OC(C)(C)C2=O)cc1
T/C [1]: 108 % of control | T/C [2]: 115 % of control | T/C [3]: 95 % of control | T/C [4]: 99 % of control | T/C [5]: 97 % of control | T/C [6]: 80 % of control

Nc1nc2c(c(=O)[nH]1)N(C=O)C(CNc1ccc(C(=O)N[C@@H](CCC(=O)O)C(=O)O)cc1)CN2 (stereo partly drawn)
T/C (endpoint: median survival time, dose: 50.0 mg/kg/injection, schedule: Q01DX009 (ip), vehicle: sodium bicarbonate, higher = longer survival): 101 % of control | T/C (endpoint: median survival time, dose: 100.0 mg/kg/injection, schedule: Q01DX009 (ip), vehicle: sodium bicarbonate, higher = longer survival): 96 % of control | T/C (endpoint: median survival time, dose: 200.0 mg/kg/injection, schedule: Q01DX009 (ip), vehicle: sodium bicarbonate, higher = longer survival): 101 % of control

O=C1C=CN(C2OC(CO)C(O)C2O)C(=O)C1 (stereo not drawn)
T/C (endpoint: mean tumor weight, dose: 150.0 mg/kg/injection, schedule: Q02DX011 (ip), vehicle: saline, higher = larger tumour): 42 % of control and 46 % of control | T/C (endpoint: mean tumor weight, dose: 300.0 mg/kg/injection, schedule: Q02DX011 (ip), vehicle: saline, higher = larger tumour): 44 % of control and 51 % of control | T/C (endpoint: median tumor weight (est.), dose: 75.0 mg/kg/injection, schedule: Q02DX011 (ip), vehicle: saline, higher = larger tumour): 78 % of control and 82 % of control | T/C (endpoint: median tumor weight (est.), dose: 150.0 mg/kg/injection, schedule: Q02DX011 (ip), vehicle: saline, higher = larger tumour): 43 % of control and 48 % of control | T/C (endpoint: median tumor weight (est.), dose: 300.0 mg/kg/injection, schedule: Q02DX011 (ip), vehicle: saline, higher = larger tumour): 38 % of control and 46 % of control

COc1ccc(/C=N/OC(=S)NC2CCCCC2)cc1OC
T/C [1]: 102 % of control | T/C [2]: 86 % of control | T/C [3]: 92 % of control

CN(N=O)C(=O)N[C@@H](C=O)[C@@H](O)[C@H](O)[C@H](O)CO
T/C (endpoint: mean tumor weight, dose: 9.38 mg/kg/injection, schedule: Q02DX011 (ip), vehicle: other, higher = larger tumour): 64 % of control | T/C (endpoint: mean tumor weight, dose: 18.75 mg/kg/injection, schedule: Q02DX011 (ip), vehicle: other, higher = larger tumour): 37 % of control and 56 % of control | T/C (endpoint: mean tumor weight, dose: 37.5 mg/kg/injection, schedule: Q02DX011 (ip), vehicle: other, higher = larger tumour): 11 % of control and 15 % of control | T/C (endpoint: mean tumor weight, dose: 75.0 mg/kg/injection, schedule: Q02DX011 (ip), vehicle: other, higher = larger tumour): 1 % of control | T/C (endpoint: median tumor weight (est.), dose: 9.38 mg/kg/injection, schedule: Q02DX011 (ip), vehicle: other, higher = larger tumour): 45 % of control | T/C (endpoint: median tumor weight (est.), dose: 18.75 mg/kg/injection, schedule: Q02DX011 (ip), vehicle: other, higher = larger tumour): 39 % of control and 60 % of control | T/C (endpoint: median tumor weight (est.), dose: 37.5 mg/kg/injection, schedule: Q02DX011 (ip), vehicle: other, higher = larger tumour): 10 % of control and 34 % of control

CCCCOc1ccc(-n2c(=O)[nH]c3ccccc3c2=O)cc1
T/C [1]: 101 % of control | T/C [2]: 94 % of control | T/C [3]: 101 % of control | T/C [4]: 97 % of control | T/C [5]: 100 % of control | T/C [6]: 105 % of control

COc1cc(COC(=O)Nc2ccccc2F)cc(OC)c1OC
T/C [1]: 100 % of control | T/C [2]: 103 % of control | T/C [3]: 94 % of control | T/C [4]: 99 % of control | T/C [5]: 111 % of control | T/C [6]: 98 % of control

CS(=O)(=O)c1ncc(Br)cn1
T/C (endpoint: median survival time, dose: 25.0 mg/kg/injection, schedule: Q04DX003 (ip), vehicle: saline with Tween-80, higher = longer survival): 100 % of control | T/C [7]: 84 % of control | T/C (endpoint: median survival time, dose: 100.0 mg/kg/injection, schedule: Q04DX003 (ip), vehicle: saline with Tween-80, higher = longer survival): 99 % of control | T/C (endpoint: median survival time, dose: 200.0 mg/kg/injection, schedule: Q04DX003 (ip), vehicle: saline with Tween-80, higher = longer survival): 91 % of control

COCC(O)Cn1ccnc1[N+](=O)[O-] (stereo not drawn)
T/C (endpoint: median survival time, dose: 600.0 mg/kg/injection, schedule: Q04DX003 (ip), vehicle: saline, higher = longer survival): 105 % of control and 106 % of control | T/C (endpoint: median survival time, dose: 668.0 mg/kg/injection, schedule: Q07DX002 (ip), vehicle: saline, higher = longer survival): 97 % of control | T/C (endpoint: median survival time, dose: 1000.0 mg/kg/injection, schedule: Q04DX003 (ip), vehicle: saline, higher = longer survival): 102 % of control | T/C (endpoint: median survival time, dose: 1000.0 mg/kg/injection, schedule: Q07DX002 (ip), vehicle: saline, higher = longer survival): 119 % of control

Source: PubChem BioAssay AID288 (DTP/NCI, 2004)
